Laboratory results as given in ChEMBL document CHEMBL3120100, “Identification and biological evaluation of flavonoids from the fruits of Prunus mume” (2014).

Key:
[1] = molecular target: T1, Tartrate-resistant acid phosphatase type 5 (Mus musculus) (UniProt Q05117); experiment: Inhibition of TRAP activity in RANKL-induced Balb/c mouse RAW264.7 cells at 10 uM after 1 hr by ELISA relative to control; assay type: cell-based
T1 sequence (whole entry): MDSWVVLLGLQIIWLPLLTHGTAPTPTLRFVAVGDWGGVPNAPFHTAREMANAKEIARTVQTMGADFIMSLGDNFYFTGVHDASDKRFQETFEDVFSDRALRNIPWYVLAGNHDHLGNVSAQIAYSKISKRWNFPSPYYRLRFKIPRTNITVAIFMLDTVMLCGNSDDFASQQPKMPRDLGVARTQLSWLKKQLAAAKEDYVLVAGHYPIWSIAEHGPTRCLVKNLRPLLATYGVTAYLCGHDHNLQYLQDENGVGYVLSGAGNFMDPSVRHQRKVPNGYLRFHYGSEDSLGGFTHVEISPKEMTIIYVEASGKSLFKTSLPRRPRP

[2] = molecular target: T1, Tartrate-resistant acid phosphatase type 5 (Mus musculus); experiment: Inhibition of TRAP activity in RANKL-induced Balb/c mouse RAW264.7 cells at 1 uM after 1 hr by ELISA relative to control; assay type: cell-based
[3] = Antiosteoporotic activity in alpha-MEM-induced C57BL/6 mouse MC3T3-E1 cells assessed as increase in mineralization by measuring calcium deposition at 5 uM by Alizarin Red staining assay relative to control; assay type: functional
[4] = Antiosteoporotic activity in C57BL/6 mouse MC3T3-E1 cells assessed as increase in mineralization by measuring calcium deposition at 5 uM by Alizarin Red staining assay relative to control; assay type: functional
[5] = Antiosteoporotic activity in alpha-MEM-induced C57BL/6 mouse MC3T3-E1 cells assessed as increase in collagen synthesis at 5 uM by Sirius Red-based colorimetric assay relative to control; assay type: functional
[6] = Antiosteoporotic activity in C57BL/6 mouse MC3T3-E1 cells assessed as increase in collagen synthesis at 5 uM by Sirius Red-based colorimetric assay relative to control; assay type: functional
[7] = Antioxidant activity assessed as reduction of Cu2+ to Cu+ at 10 uM; assay type: functional
[8] = Antioxidant activity assessed as trolox equivalent of APPH-induced peroxyl radical scavenging activity measured every 2 mins by ORAC fluorescence assay; assay type: functional
[9] = Antioxidant activity assessed as trolox equivalent of APPH-induced peroxyl radical scavenging activity at 1 uM measured every 2 mins by ORAC fluorescence assay; assay type: functional
[10] = molecular target: T1, Tartrate-resistant acid phosphatase type 5 (Mus musculus); experiment: Inhibition of TRAP activity in Balb/c mouse RAW264.7 cells at 10 uM after 1 hr by ELISA relative to control; assay type: cell-based

TRAP activity (% of control) [1]	inhibition [2]	inhibition [10]	Structure (SMILES)	Activity [3]	Activity [4]	Activity [5]	Activity [6]	Activity [7]	Activity [8]	Activity [9]
82.9%	76.6%	–	O=c1c(O[C@@H]2O[C@H](CO)[C@@H](O)[C@H](O)[C@H]2O)c(-c2ccc(O)c(O)c2)oc2cc(O)cc(O)c12 [ISOQUERCETIN]	107.58%	181.25%	112.49%	261.95%	21.3 µM	Dose-dependent effect	4.4 µM
107%	98%	–	Oc1cc(O)c2c(c1)O[C@@]1(c3ccc(O)c(O)c3)O[C@H]1[C@@H]2c1c(O)cc(O)c2c1O[C@H](c1ccc(O)c(O)c1)[C@H](O)C2	109.85%	185.08%	103.38%	240.74%	34.7 µM	Dose-dependent effect	5.22 µM
84%	78.3%	–	Oc1cc(O)c2c(c1)O[C@H](c1ccc(O)c(O)c1)[C@H](O)C2 [(-)-EPICATECHIN]	111.92%	188.57%	105.69%	246.13%	25.7 µM	Dose-dependent effect	4.49 µM
128%	101%	–	C[C@@H]1O[C@@H](O[C@H]2[C@H](Oc3c(-c4ccc(O)c(O)c4)oc4cc(O)cc(O)c4c3=O)O[C@H](CO)[C@H](O)[C@@H]2O)[C@H](O)[C@H](O)[C@H]1O	104.72%	176.44%	96.59%	224.92%	19.4 µM	Dose-dependent effect	3.36 µM
85.6%	78.5%	–	Oc1ccc([C@@]23Oc4cc(O)cc(O)c4[C@@H](c4c(O)cc(O)c5c4O[C@H](c4ccc(O)c(O)c4)[C@H](O)C5)[C@@H]2O3)cc1	89.84%	151.36%	77.16%	179.68%	29.9 µM	Dose-dependent effect	5.42 µM
71.7%	78%	146%	C[C@@H]1O[C@@H](OC[C@H]2O[C@@H](Oc3c(-c4ccc(O)c(O)c4)oc4cc(O)cc(O)c4c3=O)[C@H](O)[C@@H](O)[C@@H]2O)[C@H](O)[C@H](O)[C@H]1O [RUTIN]	103.24%	173.94%	100.09%	233.08%	30.1 µM	Dose-dependent effect	3.78 µM
